Assay results from patent US20220152165A1, “COMBINATION OF NASAL GENE DELIVERY AND ORAL CINNAMIC ACID, OLEAMIDE OR GEMFIBROZIL FOR LYSOSOMAL STOARGE DISORDERS” (Rush University Medical Center, priority 2019, published 2022).

Test system: Cln2^(−/−) mice
Test: Life span of Cln2^(−/−) mice, animal model of late infantile Batten disease (LINCL)
Format: in vivo
Settings: n=6
Protocol: (§1) For intranasal gene delivery, Cln2^(−/−) mice received 5×10^6 genome copies of Ad-Cln2 in a volume of […] twice a week intranasally (2.5 μl/nostril) starting from two weeks of age for four weeks. For gemfibrozil (gem) treatment, mice received gem (dissolved in 0.1% MeC) orally at a dose of 7.5 mg/kg body weight/day starting from six weeks of age. FIG. 1 describes the percentage of survival is shown by Kaplan-Meier plot.
as §1, with “FIG. 2” for “FIG. 1”, “describes mean” for “describes the percentage of”, “survival days. Six mice (n=6) containing 3 males and 3 females were used in each group. ***p<0.001; NS, not significant.” for “survival is shown by Kaplan-Meier plot.”
Intranasal gene delivery was examined as a valid option for fatal lysosomal storage disorders. A mouse model of Late Infantile Neuronal Ceroid Lipofuscinosis (LINCL) was used, a rare neurodegenerative disease caused by mutations in the Cln2 gene that leads to deficiency or loss of function of the tripeptidyl peptidase 1 (TPP1) enzyme. […]

With `Cc1ccc(C)c(OCCCC(C)(C)C(=O)O)c1` [gemfibrozil, 5-(2,5-dimethylphenoxy)-2,2-dimethylpentanoic acid] the “lifespan of Cln2^−/− mice” value (gemfibrozil alone, oral 7.5 mg/kg body weight/day starting from six weeks of age, mice not receiving Ad-Cln2) was “significantly increased the lifespan” and the “lifespan of Cln2^−/− mice that received intranasal Ad-Cln2” value (oral gemfibrozil 7.5 mg/kg body weight/day after 4 weeks of intranasal Ad-Cln2, compared with Ad-Cln2 alone) was “did not further increase the lifespan”.
